Assays:
Format in all cases: cell-based, human
FcgRIIA on neutrophils [1] = assay: FcgRIIA shedding, flow cytometry of neutrophil cell surface FcgRs; conditions: for effect on R848 (TLR7/8)-mediated shedding of FcgRIIA on neutrophils: agent added before R848, flow cytometry IV.3; for neutrophil cell surface expression of FcgRIIA after stimulus: flow cytometry, clone IV.3, vs non-stimulated
Text: To determine the mechanism for the TLR-induced reduction in RNP-IC phagocytosis, we analyzed the neutrophil surface expression of FcgRs after exposure to TLR ligand. Neutrophils were activated with R848 and cell surface expression of FcgRs analyzed by flow cytometry. The results were presented as FcgR levels as compared to no R848 added (% of control). The experiment was repeated five (FcgRI), seven (FcgRIII), and twenty-five (FcgRIIA) times; combined results were compared using paired t test (FcgRIIA, P<0.0001; FcgRI, P=0.027; FcgRIII, P=0.0044). […] In this experiment, neutrophils were activated with the TLR7/8 agonist R848 and analyzed for FcgRIIA at different time-points and concentrations. The experiment was repeated four (concentration) and six (kinetics) times; combined results were compared using paired t test (30 min, P=0.0158; 60 min, P<0.0001; 120 min, P=0.0003; 0.125 μg/mL, P=0.0071; 0.25 μg/mL, P=0.0058; 0.5 μg/mL, P=0.0008; 1 μg/mL, P<0.0001; 2 μg/mL, P<0.0001). […] For these experiments, neutrophils were activated with TLR ligands (LPS, 1 μg/mL, PAM3CSK4 (5 μg/mL), CpG DNA (2 μg/mL), Loxoribine (0.1 mM), CL075 (2.5 μg/mL) or R848 (2 μg/mL)) for 60 minutes or 4 hours and analyzed for FcgRIIA, FcgRII or CD11b and CD66b cell surface expression by flow cytometry. Experiments were repeated six (LPS, P=0.0008), eight (CpG DNA, P=0.035; Loxoribine, P<0.0001, and CL075, P<0.0001), ten (PAM3CSK4, P<0.0001) and forty times (R848, P<0.0001); combined results were compared using paired t test. Additional experiments were repeated four and eight times; combined results were compared using paired t test (CD11b: R848, P<0.0001; LPS, P=0.0002; PAM, P<0.0001; CpG DNA, P<0.0001; CD66b: R848, P<0.0001; LPS, P<0.0001; PAM, P<0.0001; CpG DNA, P=0.014).
Neutrophils were activated by LPS (1 μg/mL), R848 (2 μg/mL), PAM3CSK4 (5 μg/mL), Loxoribine (0.1 mM), CL075 (2.5 μg/mL) or CpG DNA (2 μg/mL) for 30 minutes, followed by analysis of cell surface expression of CD32A (IV.3; Stemcell Technologies, FUN-2, BioLegend), CD16 (clone 3G8), CD64 (clone 10.1), and CD66b (all from BioLegend) by flow cytometry. For intracellular staining, neutrophils were fixed in 2% paraformaldehyde for 10 minutes, permeabilized with saponin (diluted 1:1000 in PBS) for 15 minutes and stained with anti-CD32A antibodies diluted 1:100. In some experiments, neutrophils were incubated with inhibitors (DPI (25 μM, Sigma), apocynin (100 μM, Sigma), GM-6001 (10 μM, Enzo Life Sciences), LY294002 (10 μM), cOmplete Protease Inhibitor Cocktail Tablets (1× dissolved in H2O, Roche), neutrophil elastase IV inhibitor (25 μM, Calbiochem), E-64 (1 μM, Sigma), 4-(2-Aminoethyl)benzenesulfonyl fluoride hydrochloride (AEBSF, 0.1 mM, Sigma), CMK (25 μM, Enzo Life Sciences), cytochalasin B (5 μM, Sigma) or chymostatin (10 μg/mL, Sigma)) or recombinant furin (100 ng/mL, maximal dose tolerated by the neutrophils, Peprotech) 30 minutes prior to addition of stimuli. In some experiments cell surface levels of B cell activating factor (BAFF, Biolegend) was analyzed according to the same protocol as described above. Monocytes and pDCs were detected using antibodies to CD14 (BioLegend) and CD304 (Miltenyi Biotech), respectively.

neutrophils = assay: ROS analysis in neutrophils (DHR123, OxyBURST); conditions: flow cytometry and fluorimetry, cell impermeable ROS dye
FcgRIIA on neutrophils [2] = assay: SLE serum-mediated FcgRIIA shedding on healthy control neutrophils; conditions: sera from 6 SLE patients, IV.3/FUN2
Protocol: As neutrophil and monocyte FcgRIIA shedding was highly correlated in SLE patients upon ex vivo analysis (correlation analysis for ex vivo monocyte and neutrophil (PMN) FcgRIIA shedding in SLE patients was performed; combined results were analyzed using Spearman's correlation (r=0.84, P<0.0001)), we asked whether this could be attributed to circulating proteases, likely neutrophil-derived. […] Consistent with a role of RNA ICs, serum-mediated FcgRIIA shedding was higher in patients with anti-Sm/RNP antibodies (sera from 6 SLE patients, pre-incubated with either RNase, a pan-protease inhibitor (prot.inh.), or cytochalasin B (Cyto B, 5 μM) were added to neutrophils from a healthy individual and FcgRIIA shedding analyzed by flow cytometry; combined results were compared using paired t test (RNase: P=0.012; prot.inh.: P=0.0002; Cyto B: P<0.0001)). […] Finally, SLE serum-mediated shedding of FcgRIIA from healthy control neutrophils strongly correlated with the FcgRIIA shedding observed upon ex vivo isolation of the SLE patient's neutrophils (correlation between ex vivo FcgRIIA shedding observed on SLE neutrophils with the shedding ability by the serum obtained from the same SLE patients (n=12); combined results were analyzed by Spearman's correlation (r=0.73, P=0.0096)). […]

BAFF = BAFF cell surface expression on neutrophils; conditions: furin 100 ng/mL, 30 minutes before R848
Protocol: To determine which protease(s) were involved in the shedding of FcgRIIA, neutrophils were incubated with selective protease inhibitors prior to the addition of the TLR agonist. Cell surface levels of FcgRIIA (IV.3) was analyzed by flow cytometry upon R848 activation in the presence of a pan protease inhibitor or inhibitors of matrix metalloproteases (GM6001, 10 μM), cysteine proteases (E-64, 1 μM), serine proteases (AEBSF, 100 μM), neutrophil elastase (Elastase inhibitor IV, 25 μM), cathepsin G (chymostatin, 10 μg/mL) or furin (chloromethylketone (CMK, 25 μM). The experiment was repeated three (E-64), four (Pan Prot.inh., P<0.0001; AEBSF, P=0.0004; chymostatin; and CMK, P=0.0038), five (GM6001), and seven (NEi) times; combined results were compared using paired t test. […] Additionally, neutrophils were incubated with furin (100 ng/mL) or CMK 30 minutes prior to addition of R848. BAFF cell surface expression was analyzed by flow cytometry. […] Briefly, neutrophils were incubated with furin (100 ng/mL) in presence or absence of R848 and analyzed for FcgRIIA levels by flow cytometry. […] Finally, supernatant from activated neutrophils was fractionated and analyzed for capacity to induce shedding of monocyte FcgRIIA without, or with prior boiling of the fractions. […]

Molecule | effect on R848 (TLR7/8)-mediated shedding of FcgRIIA on neutrophils (FcgRIIA on neutrophils [1]) | neutrophil cell surface expression of FcgRIIA after stimulus (FcgRIIA on neutrophils [1]) | also measured
Cl.NCCc1ccc(S(=O)(=O)F)cc1 [AEBSF, 4-(2-Aminoethyl)benzenesulfonyl fluoride hydrochloride] | dependent on serine proteases |  | 
CCCc1nc2c(N)nc3ccccc3c2s1 [CL075] |  | reduced neutrophil cell surface levels of FcgRIIA, but not of FcgRIIIB | 
[Cl-].c1ccc2c(c1)[I+]c1ccccc1-2 [DPI] | completely restored cell surface levels of FcgRIIA |  | effect on LPS- or PAM3CSK4-mediated shedding of FcgRIIA (FcgRIIA on neutrophils [1]; neutrophils activated with LPS or PAM3CSK4 in presence of DPI): dependent on NADPH oxidase
C=CCn1c(=O)n([C@@H]2O[C@H](CO)[C@@H](O)[C@H]2O)c2nc(N)[nH]c(=O)c21 [Loxoribine] |  | reduced neutrophil cell surface levels of FcgRIIA, but not of FcgRIIIB | 
CCCCCCCCCCCCCC(=O)O[C@@H]1[C@@H](C)[C@@]2(O)[C@@H](C=C(CO)C[C@]3(O)C(=O)C(C)=C[C@@H]23)[C@@H]2C(C)(C)[C@]12OC(C)=O [PMA] |  |  | cellular localization of ROS generation (neutrophils): induced both intracellular and extracellular ROS generation
COc1cc(C(C)=O)ccc1O [apocynin] | completely restored cell surface levels of FcgRIIA |  | 
C=C1[C@@H](C)[C@H]2[C@H](Cc3ccccc3)NC(=O)[C@]23OC(=O)/C=C/[C@H](O)CCC[C@@H](C)C/C=C/[C@H]3[C@@H]1O [cytochalasin B] |  |  | effect on SLE serum-mediated FcgRIIA shedding (FcgRIIA on neutrophils [2]): almost completely abrogated serum-mediated FcgRIIA shedding
PAM3CSK4 |  | reduced neutrophil cell surface levels of FcgRIIA, but not of FcgRIIIB | 
furin: recombinant furin, pro-protein convertase (Peprotech) | did not affect FcgRIIA shedding on neutrophils |  | BAFF cell surface expression (BAFF): increased cell surface BAFF levels
